Data set [1] concerns SCC38 cells. Put plainly: Stereospecificity of the mitochondrial labeling, flow cytometry. It is filed as cell-based, human. The settings on record: all the selected concentrations, 30 min incubation. As for the experimental part:
• Fig. 1. In vivo labeling of SCC38 cells with compound 4 at different concentrations (50, 100 and 500 nM). Scale bar: 10 µm • Fig. 2. Flow cytometry studies in SCC38 and HeLa cell lines labeled with compound 4 and Mito Tracker® Red. Histograms wherein fluorescence intensity vs number of events is represented for each of the staining times (5, 15 and 30 min) and control (Ctrl), for the SCC38 and HeLa cells and for each of the two markers. • Fig. 3. Absorption (A) and fluorescence (B) spectra, normalized to molar absorption and fluorescence quantum yield of probe 4 in different solvents; chloroform (green), acetone (black), acetonitrile (red), ethanol (blue) and water (gray). • Fig. 4. […] (A) Flow cytometry analysis of SCC38 cells incubated in the presence (+FCCP) or absence (-FCCP) of FCCP 60 µM for 3 h before staining with 20 nM of 4 or 0.5 nm of MitoTracker. The data represent the mean fluorescence intensity (MFI) of the stained cells. […] The graphs show the fluorescence profiles of the regions of interest indicated with white lines in the right-hand panels. […] The data represent the mean fluorescence intensity (MFI) of the stained cells (upper panels) and representative images of the cytometry profiles (lower panels). • Fig. 7. […] (B) The data represent the mean fluorescence intensity (MFI) of the labeled cells. […]

Data set [2] is described as follows: Photophysical characterization: absorption and fluorescence spectra. In kind it is physicochemical. As for the experimental part:
The photophysical characterization of probes 3 and 4 was carried out analyzing the corresponding absorption and fluorescence spectra in the UV-visible region of the spectrum.
Its photophysical behavior is dependent on the degree of substitution of the BODIPY, since the alkylation of the chromatophore induces sufficient steric hindrance to reduce the free rotation of the 8-mesityl group, a process that entails a significant reduction in fluorescence efficiency. Thus, probe 4 in water stands out for having a high molar absorption coefficient (3.8 × 10^4 M^-1 cm^-1 at 499 nm) and a very efficient fluorescence emission at 511 nm, with a quantum yield of up to 80%.

Data set [3] in a line: Stability in water: time evolution in D2O followed by 1H NMR (hydrolysis). It is filed as physicochemical. The settings on record: 15 mM solution in D2O at 25 °C, read-out: t1/2 (hydrolysis) (converted). As for the experimental part:
One of the critical factors that conditions the viability and applicability of functional dyes 3 and 4 as fluorescent mitochondrial probes is their stability in water, since these compounds contain two potentially labile B-O bonds linking the fluorophore with the carnitine substituent. This stability was determined analyzing the time evolution of 3 and 4 in a 15 mM solution in D2O at 25 °C using ^1H NMR. This technique makes it possible not only to define their stability, but also to identify the possible degradation products (Diagram 2). Both probes are hydrolyzed, generating free carnitine and the corresponding 4,4-dihydroxy-BODIPY derivatives 5 and 6. [drawing 8]
Compound 3 is quickly hydrolyzed (t1/2 = 10 min); however, the greater substitution of the tetramethylated derivative in 4 gives it greater stability (t1/2 = 6 h), which promotes its use as a fluorescent marker in live cells. Contrary to what might be believed, the generation of free carnitine and of the corresponding BODIPY derivatives 5 and 6 at physiological pH is, indeed, an advantage for its application in cell labels. Thus, (R)-carnitine is incorporated into the mitochondrial metabolism, while the boron of the hydrolyzed BODIPY can covalently bond to poly-hydroxilated molecules (for example, saccharides and glycoproteins), generating cyclic boronic esters. […]

For data set [4], the system named is SCC38 cells. The data set can be described thus: Labeling in the presence of FCCP (depolarized mitochondrial membrane), flow cytometry. In kind it is cell-based, human. The settings on record: 60 µM FCCP for 3 h at 37 °C before staining; 20 nM of 4 or 0.5 nM of MitoTracker. How it is done:
• Fig. 1. In vivo labeling of SCC38 cells with compound 4 at different concentrations (50, 100 and 500 nM). Scale bar: 10 µm • Fig. 2. Flow cytometry studies in SCC38 and HeLa cell lines labeled with compound 4 and Mito Tracker® Red. Histograms wherein fluorescence intensity vs number of events is represented for each of the staining times (5, 15 and 30 min) and control (Ctrl), for the SCC38 and HeLa cells and for each of the two markers. • Fig. 3. Absorption (A) and fluorescence (B) spectra, normalized to molar absorption and fluorescence quantum yield of probe 4 in different solvents; chloroform (green), acetone (black), acetonitrile (red), ethanol (blue) and water (gray). • Fig. 4. […] (A) Flow cytometry analysis of SCC38 cells incubated in the presence (+FCCP) or absence (-FCCP) of FCCP 60 µM for 3 h before staining with 20 nM of 4 or 0.5 nm of MitoTracker. The data represent the mean fluorescence intensity (MFI) of the stained cells. (B) Microscopy analysis of SCC38 cells pretreated or not with FCCP before co-staining with 20 nM of 4 and 0.5 nm of MitoTracker. The graphs show the fluorescence profiles of the regions of interest indicated with white lines in the right-hand panels. Scale bars: 10 µm). • Fig. 5. […] The data represent the mean fluorescence intensity (MFI) of the stained cells (upper panels) and representative images of the cytometry profiles (lower panels). • Fig. 7. […] (B) The data represent the mean fluorescence intensity (MFI) of the labeled cells.
The labeling was analyzed by flow cytometry in the presence of carbonyl cyanide-p-(trifluoromethoxy)phenylhydrazone (FCCP), a protonophore used to reduce the mitochondrial membrane potential (ΔΨm) through depolarization of the mitochondrial membrane. […] Indeed, the suppression of dye-mitochondria electrostatic attraction as a passive labeling mechanism reduces the concentration of the dye in the cell organelle and, thus, the probability and extent of the fluorescence deactivation processes, with the ensuing increase in their efficiency. […]

The subject of data set [5] is SCC38 cells. The data set can be described thus: Inhibition of mitochondrial staining by (R)-palmitoylcarnitine (CACT substrate), flow cytometry. In kind it is cell-based, human. The settings on record: co-incubation, probe 50 nm, (R)-palmitoylcarnitine 100, 250 and 500 nM.
Protocol: The SCC38 cells were co-incubated with the indicated concentrations of (R)-palmitoylcarnitine and 50 nM of 4 (A) or 50 nM of MitoTracker (B) before analyzing by flow cytometry. The data represent the mean fluorescence intensity (MFI) of the stained cells (upper panels) and representative images of the cytometry profiles (lower panels). • Fig. 7.
To test if CACT was in fact involved in the channeling of 4 to the mitochondrial matrix, we firstly studied the effect of (R)-(+)-palmitoylcarnitine, a natural CACT substrate, in cell labeling by 4.
Data set [6] deals with HeLa. Put plainly: Kinetics of cell labeling by flow cytometry. In kind it is cell-based, human. The settings on record: 50 nM, staining times 5, 15 and 30 min. As for the experimental part:
(§1) The cell assays were carried out on two human cell lines: SCC38 and HeLa. The SCC38 line is derived from human laryngeal epidermoid carcinoma patients, while HeLa, the first human cell line established in culture, is derived from cervical cancer. The culture medium used for both cell lines was DMEM (Dulbecco's Modified Eagle's Medium) supplemented with 10% of fetal bovine serum (FBS), 100 U/mL of penicillin, 200 µg/mL of streptomycin, 100 µmol/L of non-essential amino acids and 2 mmol/L of glutamine. The cultures were incubated at 37 °C and 5% of CO2.
(§2) The kinetics of cell labeling with 4 was studied by flow cytometry with the SCC38 and HeLa cell lines, using MitoTracker® Red as a control marker, both at a concentration of 50 nM. The staining times studied were 5, 15, 30 and 45 minutes. After staining, the medium was removed, washed with PBS, trypsinized and the pellet was resuspended in 500 µL of PBS and introduced in the cytometer after filtration. A Beckman Coulter Cytomics FC500 Flow Cytometry Analyzer was used (Scientific-Technical Services, Universidad de Oviedo). Part of the resuspended cells were also plated and observed under the microscope.

For data set [7], the system named is SCC38. Put plainly: Kinetics of cell labeling by flow cytometry. In kind it is cell-based, human. The settings on record: SCC38, 50 nM, staining times 5, 15 and 30 min. As for the experimental part: as §1, §2
Data set [8] deals with SCC38 cells. The data set can be described thus: Co-localization by co-staining with MitoTracker Red, fluorescence microscopy of live cells. The settings on record: co-staining, compound 4 50 nM, MitoTracker® Red 25 nM, 30 minutes. In kind it is cell-based, human. As for the experimental part:
as §1
These cell lines were stained with the fluorescent probes synthesized following the following protocol: 30,000-50,000 SCC38 cells were plated on 24-well glass-bottomed plates and cultured to 70% confluence. The culture medium was then removed from the well and washed at least three times with DMEM medium without additives. Next, 1 mL of DMEM and the corresponding fluorescent compound was added to the well. The cells were incubated at 37 °C for 30 minutes, after which the medium was removed and newly washed with DMEM. Lastly, complete medium was added and the cells were observed under the microscope. Microscopy analysis was performed using a Zeiss Axio Observer Z1 microscope with AxioCam MRM and ApoTome 2 (Carl Zeiss, Germany) with different 40X 63X oil immersion objectives. The cells were also stained with MitoTracker® Red CMXRos (Thermo Fisher), following the manufacturer's instructions, with the aim of carrying out comparative studies with the new fluorescent markers synthesized herein. Initially, both compounds 3 and 4 were used at a concentration of 50 nM, and staining time was also 30 minutes.
In order to confirm the specificity of the mitochondrial labeling, co-localization studies were carried out by co-staining with the commercial mitochondrial marker MitoTracker® Red in the cell line. Compound 4 was used at a concentration of 50 nM and MitoTracker® Red at 25 nM. Both compounds were added simultaneously and incubated for 30 minutes.

For `CC1=CC(C)=[N+]2C1=C(c1c(C)cc(C)cc1C)c1c(C)cc(C)n1[B-]21OC(=O)C[C@@H](C[N+](C)(C)C)O1` (stereo partly drawn) [(S)-4], in data set [1], the “fluorescence intensity compared with 4” value is reported as “considerably lower”.

As for `Cc1cc(C)c(C2=C3C=CC=[N+]3[B-]3(OC(=O)C[C@H](C[N+](C)(C)C)O3)n3cccc32)c(C)c1` (stereo partly shown) [Compound 3], in data set [2] (Water), the “kfl: Radiative decay constant” value is on record as 0.66 10^8s^- 1, the “knr: Non-Radiative decay constant” value is reported as 1.00 10^8s^- 1, the “Δv: Stokes shift” value came to 542 cm⁻¹ and the “εmax: Molar extinction coefficient at the absorption peak” value is given as 4.1 × 10^4 (M^-1 cm^- 1). Besides, in data set [2] (Water), the “λab: Absorption peak wavelength” value worked out at 501 nm and the “τ: Fluorescence lifetime” value was 6.00 ns. Moreover, the “λfl: Fluorescence peak wavelength” value in data set [2] (Water, excitation at 490 nm) turned out to be 515 nm. In data set [2] (Water, reference PM567 in ethanol), the “φf: Quantum yield” value was 0.40. Further, the “tendency towards H- or J- type aggregation” value in data set [2] (concentrations as high as 10^-4 M) is “not exhibit any tendency towards H- or J- type aggregation”. Besides, in data set [3], the half-life at 15000 µM is 10 min.

In the case of `ClCc1ccc(C2=c3cc4c5c(c3Oc3c2cc2c6c3CCCN6CCC2)CCC[N+]=5CCC4)cc1` [MitoTracker® Red, reference compound], the “mitochondrial fluorescence of cells treated with FCCP” value in data set [4] is given as “highly attenuated mitochondrial fluorescence”. Further, the “effect of (R)-palmitoylcarnitine on fluorescence intensity” value in data set [5] is “only a slight increase of fluorescence”. The “change of staining intensity with incubation time” value in data set [6] and in data set [7] was “barely varied upon increasing incubation time” each time. Further, the “location of the stain in the mitochondria” value in data set [8] is listed as “concentrated along the edges of the mitochondria”.

Source of the values: EP3650451A1, “COMPOUNDS AND THEIR USES AS FLUORESCENT PROBES” (Consejo Superior de Investigaciones Cientificas, priority 2017, dated 2019).
